The subject of data set [1] is Escherichia coli. As to the kind of experiment: In vivo antibacterial activity against Escherichia coli NCTC 10419 infected in po dosed mouse administered at 1 and 4 hrs post infection. The format is functional, organism-based.
Data set [2] is described as follows: Partition coefficient, log P of the compound. Type of data set: physicochemical. The settings on record: octanol/water.
The subject of data set [3] is Yersinia pseudotuberculosis. The data set can be described thus: Antibacterial activity against Yersinia pseudotuberculosis ATCC 911 after 18 to 24 hrs by double microdilution method. Type of data set: functional. Background: Broth dilution looks for growth in wells or tubes with falling amounts of substance.
A further data set has as its system Enterococcus faecalis. As to the kind of experiment: Antibacterial activity against Enterococcus faecalis ATCC 29212 after 18 to 24 hrs by double microdilution method. The format is functional.
Data set [4] concerns Staphylococcus aureus. The data set can be described thus: Antibacterial activity against Staphylococcus aureus ATCC 25923 after 18 to 24 hrs by double microdilution method. Type of data set: functional.
The subject of a further data set is Bacillus cereus. The data set can be described thus: Antibacterial activity against Bacillus cereus 709 Roma after 18 to 24 hrs by double microdilution method. Type of data set: functional.
For data set [5], the system named is Mycolicibacterium smegmatis. The data set can be described thus: Antibacterial activity against Mycobacterium smegmatis ATCC 607 after 48 to 72 hrs by double microdilution method. The format is functional.
Data set [6] has as its system Escherichia coli. As to the kind of experiment: Antibacterial activity against Escherichia coli ATCC 35218 after 18 to 24 hrs by double microdilution method. Type of data set: functional.
Data set [7] relates to Pseudomonas aeruginosa. As to the kind of experiment: Antibacterial activity against Pseudomonas aeruginosa ATCC 10145 after 18 to 24 hrs by double microdilution method. The format is functional.
The test system of another data set is Bacillus subtilis. As to the kind of experiment: Antibacterial activity against Bacillus subtilis NCDC 71 after overnight incubation by single disc method. Type of data set: functional.
In data set [8] the test system is Escherichia coli. As to the kind of experiment: Antibacterial activity against Escherichia coli NCDC 134 after overnight incubation by single disc method. The format is functional.
Data set [9] relates to Pseudomonas aeruginosa. The data set can be described thus: Antibacterial activity against Pseudomonas aeruginosa NCDC105 after overnight incubation by single disc method. Type of data set: functional.
Another data set has as its system Paenibacillus polymyxa. The data set can be described thus: Antibacterial activity against Paenibacillus polymyxa NCDC 64 after overnight incubation by single disc method. Type of data set: functional.
Data set [10] concerns Staphylococcus aureus. The data set can be described thus: Antibacterial activity against Staphylococcus aureus NCDC 110 after overnight incubation by single disc method. Type of data set: functional.

Converted amounts (≈) assume the structure as drawn. A value given as a limit tells only on which side of the number the result lay.

As usually defined, the logP is a log measure of how a compound divides between an organic and an aqueous phase. Low readings indicate a more hydrophilic compound, high ones a more lipophilic compound. Broadly, the MIC is the lowest concentration that inhibits growth of the organism. Low values mean greater potency, high ones weaker potency.

In the case of `COc1cc(Cc2cnc(/N=C3\C(=O)N(CN4CCN(c5cc6c(cc5F)c(=O)c(C(=O)O)cn6C5CC5)CC4)c4ccc(C)cc43)nc2N)cc(OC)c1OC`, in the data set with Escherichia coli [1], the EC50 came out at 0.62 mg/kg.

In the case of `COC(=O)c1cn(C2CC2)c2cc(N3CCNCC3)c(F)cc2c1=O`, the logP in [2] was -0.441.

On to `CCCOC(=O)c1cn(C2CC2)c2cc(N3CCNCC3)c(F)cc2c1=O`, for which the logP in data set [2] came to 0.437.

Regarding `CCn1c(CNc2ccc(N3CCN(c4ccc(F)cc4)CC3)c(F)c2)nn(CN2CCN(c3cc4c(cc3F)c(=O)c(C(=O)O)cn4C3CC3)CC2)c1=S`, the MIC (in data set [3]; against Enterococcus faecalis; in the data set with Staphylococcus aureus [4]; with Bacillus cereus; in [5]; in the data set with Escherichia coli [6]) was less than 0.24 µg/mL each time. Besides, the MIC in the data set with Pseudomonas aeruginosa [7] is less than 0.24 µg/mL.

With `O=C(CN1CCN(c2cc3c(cc2F)c(=O)c(C(=O)O)cn3C2CC2)CC1)Nc1nc2ccc([N+](=O)[O-])cc2s1`, the MIC against Bacillus subtilis, in the data set on Escherichia coli [8], in the data set with Pseudomonas aeruginosa [9], against Paenibacillus polymyxa and with Staphylococcus aureus [10] was 3 to 125 µg/mL (≈ 5.3 to 221 µM) in each case.

On to `O=C(CN1CCN(c2cc3c(cc2F)c(=O)c(C(=O)O)cn3C2CC2)CC1)Nc1nc2ccc(Cl)cc2s1`, for which the MIC against Bacillus subtilis, in the data set on Escherichia coli [8], in the data set with Pseudomonas aeruginosa [9], in the data set with Paenibacillus polymyxa and in the data set on Staphylococcus aureus [10] was 3 to 15 µg/mL (≈ 5.4 to 27 µM) throughout.

As to `COc1ccccc1N1CCN(Cc2nn(CN3CCN(c4cc5c(cc4F)c(=O)c(C(=O)O)cn5C4CC4)CC3)c(=O)n2Cc2ccccc2)CC1`, the minimum inhibitory concentration (MIC) (in data set [3]; in the data set with Enterococcus faecalis; with Staphylococcus aureus [4]; against Bacillus cereus; in [5]; with Escherichia coli [6]) was less than 0.24 µg/mL throughout. The same molecule had a minimum inhibitory concentration (MIC) against Pseudomonas aeruginosa [7] of less than 0.24 µg/mL.

Regarding `COc1ccccc1N1CCN(Cc2nn(CN3CCN(c4cc5c(cc4F)c(=O)c(C(=O)O)cn5C4CC4)CC3)c(=S)n2Cc2ccccc2)CC1`, the minimum inhibitory concentration (MIC) (in data set [3]; against Enterococcus faecalis; in the data set with Staphylococcus aureus [4]; in the data set on Bacillus cereus; in data set [5]; in the data set with Escherichia coli [6]) was less than 0.24 µg/mL each time. The minimal inhibitory concentration (MIC) in the data set on Pseudomonas aeruginosa [7] is less than 0.24 µg/mL.

As for `O=C(O)c1cn(C2CC2)c2cc(N3CCN(Cn4nc(CNc5ccc(N6CCN(c7ccc(F)cc7)CC6)c(F)c5)n(Cc5ccccc5)c4=S)CC3)c(F)cc2c1=O`, the MIC (in [3]; against Enterococcus faecalis; against Staphylococcus aureus [4]; against Bacillus cereus; in data set [5]; in the data set on Escherichia coli [6]) was less than 0.24 µg/mL each time. Besides, the MIC against Pseudomonas aeruginosa [7] was less than 0.24 µg/mL.

As for `O=C(CN1CCN(c2cc3c(cc2F)c(=O)c(C(=O)O)cn3C2CC2)CC1)Nc1nc2c(Cl)ccc(Cl)c2s1`, the MIC with Bacillus subtilis, in the data set on Escherichia coli [8], in the data set on Pseudomonas aeruginosa [9], in the data set on Paenibacillus polymyxa and against Staphylococcus aureus [10] was 3 to 125 µg/mL (≈ 5.08 to 212 µM) in each case.
